According to the supplement of paper PMC10307832:

How the values were obtained:
Assay in all cases: relative viability (nuclei count vs DMSO), 5 days (fraction); higher = more cells survive
Carfilzomib + Navitoclax = compound: CC(C)C[C@H](NC(=O)[C@H](CCc1ccccc1)NC(=O)CN1CCOCC1)C(=O)N[C@@H](Cc1ccccc1)C(=O)N[C@@H](CC(C)C)C(=O)[C@@]1(C)CO1 [Carfilzomib] + CC1(C)CCC(c2ccc(Cl)cc2)=C(CN2CCN(c3ccc(C(=O)NS(=O)(=O)c4ccc(N[C@H](CCN5CCOCC5)CSc5ccccc5)c(S(=O)(=O)C(F)(F)F)c4)cc3)CC2)C1 [Navitoclax] (partner 0.5 µM)
Method in brief: (§1)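 For relative viability, nuclei counts in treated wells were divided by those in vehicle wells. Lung cancer cell lines had been pin-tool dosed in 1536-well plates the day after seeding and cultured for 5 days, then fixed and stained in one step (final 0.05% Triton X-100, 1% formaldehyde, 1 ug/ml Hoechst) and imaged at 4×. Doses were one drug alone or a fixed anchor-drug dose plus five library-drug doses (not always all listed) in √10 steps, and values are duplicate-plate medians.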

Crizotinib + Pictilisib = compound: C[C@@H](Oc1cc(-c2cnn(C3CCNCC3)c2)cnc1N)c1c(Cl)ccc(F)c1Cl [Crizotinib] + CS(=O)(=O)N1CCN(Cc2cc3nc(-c4cccc5[nH]ncc45)nc(N4CCOCC4)c3s2)CC1 [Pictilisib] (partner 1 µM)
Method in brief: as §1

Crizotinib + Vorinostat = compound: C[C@@H](Oc1cc(-c2cnn(C3CCNCC3)c2)cnc1N)c1c(Cl)ccc(F)c1Cl [Crizotinib] + O=C(CCCCCCC(=O)Nc1ccccc1)NO [Vorinostat] (partner 1 µM)
Method in brief: as §1

Olaparib + Luminespib = compound: O=C(c1cc(Cc2n[nH]c(=O)c3ccccc23)ccc1F)N1CCN(C(=O)C2CC2)CC1 [Olaparib] + CCNC(=O)c1noc(-c2cc(C(C)C)c(O)cc2O)c1-c1ccc(CN2CCOCC2)cc1 [Luminespib] (partner 0.01 µM)
Method in brief: as §1

Row | Cell Line | relative viability (Carfilzomib + Navitoclax; first compound 0.001 µM) | relative viability (Carfilzomib + Navitoclax; first compound 0.003162 µM) | relative viability (Carfilzomib + Navitoclax; first compound 0.01 µM) | relative viability (Carfilzomib + Navitoclax; first compound 0.03162 µM) | relative viability (Carfilzomib + Navitoclax; first compound 0.1 µM) | relative viability (Crizotinib + Pictilisib; first compound 0.01 µM) | relative viability (Crizotinib + Pictilisib; first compound 0.03162 µM) | relative viability (Crizotinib + Pictilisib; first compound 0.1 µM) | relative viability (Crizotinib + Pictilisib; first compound 0.3162 µM) | relative viability (Crizotinib + Pictilisib; first compound 1 µM) | relative viability (Crizotinib + Vorinostat; first compound 0.01 µM) | relative viability (Crizotinib + Vorinostat; first compound 0.03162 µM) | relative viability (Crizotinib + Vorinostat; first compound 0.1 µM) | relative viability (Crizotinib + Vorinostat; first compound 1 µM) | relative viability (Olaparib + Luminespib; first compound 0.08 µM) | relative viability (Olaparib + Luminespib; first compound 0.253 µM) | relative viability (Olaparib + Luminespib; first compound 2.53 µM) | relative viability (Olaparib + Luminespib; first compound 8 µM) | relative viability (Crizotinib + Vorinostat; first compound 0.3162 µM)
1 | LOU-NH91 | 0.703 | 0.832 | 0.42 | 0.19 | 0.204 | 0.45 | 0.531 | 0.618 | 0.515 | 0.484 | 0.893 | 0.927 | 0.989 | 0.836 | 0.341 | 0.36 | 0.346 | 0.332 | –
2 | NCI-H1755 | 0.972 | 0.989 | 0.994 | 0.841 | 0.198 | 0.413 | 0.485 | 0.444 | 0.309 | 0.437 | 0.668 | 0.779 | 0.743 | 0.764 | 0.743 | 0.411 | 0.41 | 0.418 | 0.757
3 | NCI-H647 | – | 1.33 | 0.841 | 0.087 | 0.0294 | 0.432 | 0.393 | 0.459 | – | 0.269 | – | 0.71 | 0.575 | 0.643 | 0.126 | 0.186 | 0.15 | 0.121 | 0.764
4 | A549 | 1.17 | 1.21 | 1.24 | 0.0372 | 0.0397 | 0.558 | 0.439 | 0.521 | 0.543 | 0.53 | – | – | – | – | – | – | – | – | –
5 | LCLC-103H | – | – | – | – | – | 0.547 | 0.65 | 0.669 | 0.583 | 0.576 | 0.716 | 0.869 | 0.841 | 0.8 | 1.21 | 0.805 | 1.19 | 0.769 | 0.434
6 | NCI-H1437 | 1.08 | 1.12 | 1.12 | 0.759 | 0.12 | 0.311 | 0.461 | 0.389 | 0.375 | 0.439 | 0.832 | 0.832 | 0.857 | 0.849 | 1.26 | 1.08 | 1.06 | 0.809 | 0.867
7 | NCI-H2170 | 0.698 | 0.688 | 0.617 | 0.409 | 0.197 | 0.316 | 0.315 | 0.286 | 0.277 | 0.292 | – | 0.838 | 0.746 | 0.828 | 0.735 | 0.651 | 0.594 | 0.5 | 0.795
8 | HCC-15 | 0.667 | 0.728 | 0.762 | 0.423 | 0.148 | 0.622 | 0.69 | 0.722 | 0.391 | 0.687 | 0.802 | 0.875 | 0.926 | 0.875 | 0.462 | 0.372 | 0.346 | 0.191 | 0.847
9 | NCI-H1648 | – | – | – | – | – | – | – | – | – | – | – | 0.412 | 0.341 | 0.619 | – | – | – | – | 0.506
10 | NCI-H661 | – | – | – | – | – | 0.379 | 0.349 | 0.383 | 0.378 | 0.36 | 0.706 | 0.777 | 0.731 | 0.775 | 1.02 | 0.869 | 0.878 | 0.619 | 0.841
11 | NCI-H650 | – | – | – | – | – | 0.883 | 0.893 | 0.865 | 0.799 | 0.783 | 0.528 | 0.414 | 0.396 | 0.444 | 0.924 | 0.816 | 0.577 | 0.533 | –
12 | RERF-LC-KJ | 0.972 | 1.13 | 0.608 | 0.218 | 0.252 | 0.502 | 0.628 | 0.476 | 0.561 | 0.621 | 0.695 | 0.708 | 0.709 | 0.773 | 1.22 | 1.08 | 1.23 | 1 | 0.566
13 | SK-LU-1 | 0.77 | 0.896 | 0.286 | 0.0872 | 0.0846 | 0.613 | 0.709 | 0.557 | 0.686 | 0.567 | 0.73 | 0.727 | 0.71 | 0.761 | 0.228 | 0.178 | 0.194 | 0.199 | 0.801
14 | NCI-H1792 | 0.575 | 0.628 | 0.563 | 0.612 | 0.555 | 0.266 | 0.286 | 0.284 | 0.274 | 0.285 | – | – | – | – | 0.484 | 0.359 | 0.409 | 0.425 | –
15 | NCI-H1666 | 1.07 | 0.963 | 1.05 | 0.929 | 0.263 | 0.483 | 0.484 | 0.325 | 0.553 | 0.3 | 1.14 | 0.999 | 1.07 | 0.955 | 1.1 | 0.879 | 0.889 | 0.697 | 0.978
16 | SK-MES-1 | 1.29 | 1.25 | 1.26 | 0.416 | 0.172 | 0.402 | 0.311 | 0.35 | 0.299 | 0.333 | 0.993 | 1.11 | 1.09 | 1.07 | 0.841 | 0.774 | 0.727 | 0.604 | 0.981
17 | NCI-H1915 | 0.717 | 0.785 | 0.762 | 0.438 | 0.0486 | 0.874 | 0.88 | 1.01 | – | 0.952 | 0.601 | 0.518 | 0.502 | 0.517 | 0.685 | 0.575 | 0.408 | 0.387 | 0.458
